Results published in US6566365B1, “Method for the treatment of Flaviviridea viral infection using nucleoside analogues” (BioChem Pharma Inc., priority 1999, dated 2003).

Legend:
[1] = target: T1, HCV RNA-dependent RNA polymerase (NS5B protein) (Hepatitis C virus genotype 1b, UniProt P26663); test: In vitro HCV RNA-dependent RNA polymerase assay, triphosphate form of guanosine analogues (polyC/oligoG or heteropolymeric RNA template, [32P]-GTP incorporation); assay type: biochemical, HCV-Bk strain; conditions: purified recombinant NS5B; for inhibition at 50 µM: @50 μM compound
T1 construct: The cDNA encoding the entire NS5B protein of HCV-Bk strain, genotype 1b; added initiator Met (ATG introduced before the NS5B coding region) (N); made in house; host or cells: Sf9 insect cells, recombinant baculovirus BacNS5B (pBlueBacII)
T1 sequence (P26663 2420-3010): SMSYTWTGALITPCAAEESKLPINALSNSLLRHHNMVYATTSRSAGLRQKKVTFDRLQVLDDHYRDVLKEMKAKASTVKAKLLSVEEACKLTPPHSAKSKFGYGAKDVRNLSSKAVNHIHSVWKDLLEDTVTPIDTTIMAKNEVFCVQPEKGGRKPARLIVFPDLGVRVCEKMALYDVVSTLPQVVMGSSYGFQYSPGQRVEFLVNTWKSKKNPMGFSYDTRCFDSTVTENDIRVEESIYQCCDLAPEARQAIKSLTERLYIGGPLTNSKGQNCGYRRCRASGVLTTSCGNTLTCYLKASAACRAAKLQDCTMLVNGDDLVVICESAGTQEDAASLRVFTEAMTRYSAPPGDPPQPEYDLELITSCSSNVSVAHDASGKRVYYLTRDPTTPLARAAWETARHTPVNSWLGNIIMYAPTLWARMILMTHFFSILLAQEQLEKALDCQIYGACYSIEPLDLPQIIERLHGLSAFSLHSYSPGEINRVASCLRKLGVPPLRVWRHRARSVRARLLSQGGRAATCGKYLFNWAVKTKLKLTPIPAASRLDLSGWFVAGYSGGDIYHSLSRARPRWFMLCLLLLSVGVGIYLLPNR
Protocol: (§1) Compounds were evaluated using an in vitro polymerase assay containing purified recombinant HCV RNA-dependent RNA polymerase (NS5B protein). HCV NS5B was expressed in insect cells using a recombinant baculovirus as vector. The experimental procedures used for the cloning, expression and purification of the HCV NS5B protein are described bellow. Follows, are details of the RNA-dependent RNA polymerase assays used to test the compounds.
(§2) The cDNA encoding the entire NS5B protein of HCV-Bk strain, genotype 1b, was amplified by PCR using a plasmid containing a cDNA version of the full-length HCV genome as template. The oligonucleotides used to amplify this HCV region were designed to introduce a NheI site followed by an ATG at the 5′ end of the NS5B coding region as well as a BamHI site at the 3′end immediately downstream of the translation stop codon. The amplified sequence, of 1.8 kb, was digested with NheI and BamHI and ligated to a predigested pBlueBacII plasmid (Invitrogen). The resulting recombinant plasmid was designated pBac/NS5B. Sf9 cells were co-transfected with 3 μg of pBac/NS5B, together with 1 μg of linearized baculovirus DNA (Invitrogen), as described in the manufacturer's protocol. Following two rounds of plaque purification, an NS5B-recombinant baculovirus, BacNS5B, was isolated. The presence of the recombinant NS5B protein was determined by western blot analysis (Harlow and Lane, 1988) of BacNS5B-infected Sf9 cells, using a HCV NS5B specific rabbit polyclonal antiserum (anti-NS5B). Infections of Sf9 cells with this plaque purified virus were performed in one-liter spinner flasks at a cell density of 1.2×10^6 cells/ml and a multiplicity of infection of 5.
(§3) Sf9 cells were infected as described above. Sixty hours post-infection, cells were harvested then washed twice with phosphate buffer saline (PBS). Total proteins were solubilized as described in Lohmann et al. (1997) with some modifications. In brief, proteins were extracted in three steps, S1, S2, S3, using lysis buffers (LB) I, LB II and LB III (Lohmann et al, 1997). The composition of LBII was modified to contain 0.1% triton X-100 and 150 mM NaCl to reduce the amount of solubilized NS5B protein at this step. In addition, sonication of cell extracts was avoided throughout the protocol to preserve the integrity of the protein structure.
Soluble NS5B protein in the S3 fraction was diluted to lower the NaCl concentration to 300 mM, then it incubated batchwise with DEAE sepharose beads (Amersham-Pharmacia) for 2 hrs at 4° C., as described by Behrens et al. (1996). Unbound material was cleared by centrifugation for 15 min at 4° C., at 25000 rpm using a SW41 rotor (Beckman). […] Eluted fractions were analyzed by SDS-PAGE and western blotting. […]

[2] = target: T1, HCV RNA-dependent RNA polymerase (NS5B protein); test: In vitro HCV RNA-dependent RNA polymerase assay, triphosphate form of cytosine analogues (polyrI/oligodC or heteropolymeric RNA template, [32P]-CTP incorporation); assay type: biochemical, HCV-Bk strain; conditions: purified recombinant NS5B; for inhibition at 50 µM: @50 μM compound; for inhibition at 100 µM: @100 μM compound
Protocol: as §1, §2, §3
Soluble NS5B protein in the S3 fraction was diluted to lower the NaCl concentration to 300 mM, then it incubated batchwise with DEAE sepharose beads (Amersham-Pharmacia) for 2 hrs at 4° C., as described by Behrens et al. (1996). Unbound material was cleared by centrifugation for 15 min at 4° C., at 25000 rpm using a SW41 rotor (Beckman). The supernatant was further diluted to lower the NaCl concentration to 200 mM and subsequently loaded, with a flow rate of 1 ml/min, on a 5 ml HiTrap® heparin column (Amersham-Pharmacia) connected to an FPLC® system (Amersham-Pharmacia). Bound proteins were eluted in 1 ml fractions, using a continuous NaCl gradient of 0.2 to 1 M, over a 25 ml volume. NS5B-containing fractions were identified by sodium dodecyl sulfate polyacrylamide gel electrophoresis (SDS-PAGE), followed by western blotting using the anti-NS5B antiserum at a dilution of 1:2000. Positive fractions were pooled and the elution buffer was exchanged against a 50 mM NaPO4 pH 7.0, 20% glycerol, 0.5% triton X-100 and 10 mM DTT, using a PD-10 column (Amersham-Pharmacia). The sample was then loaded onto a 1 ml HiTrap® SP column (Amersham-Pharmacia), with a flow rate of 0.1 ml/min. Bound proteins were eluted using a continuous 0 to 1 M NaCl gradient over a 15 ml volume. Eluted fractions were analyzed by SDS-PAGE and western blotting. Alternatively, proteins were visualized, following SDS-PAGE, by silver staining using the Silver Stain Plus kit (BioRad) as described by the manufacturer.
RdRp assays were conducted using either homopolymeric template/primers or in vitro transcribed RNA templates. […]

Nc1nc2c(ncn2[C@H]2CO[C@@H](COP(=O)(O)OP(=O)(O)OP(=O)(O)O)O2)c(=O)[nH]1 (single isomer, unassigned) [13(-) triphosphate, (−)-triphosphate-cis-2-hydroxymethyl-4-(guanin-9′-yl)-1,3-dioxolane]
inhibition at 50 µM [1]: 82% | IC50 [1]: 10 µM

Nc1ccn([C@H]2CO[C@@H](COP(=O)(O)OP(=O)(O)OP(=O)(O)O)O2)c(=O)n1 (single isomer, unassigned) [COMPOUND#22(+), (+)-triphosphate-cis-2-hydroxymethyl-4-(cytosin-1′-yl)-1,3-dioxolane]
inhibition at 50 µM [2]: 85% | IC50 [2]: 7.7 µM

Nc1nc(=O)n([C@@H]2CO[C@H](COP(=O)(O)OP(=O)(O)OP(=O)(O)O)O2)cc1F (single isomer, unassigned) [COMPOUND#23(−), (−)-triphosphate-cis-2-hydroxymethyl-4-(5′-fluorocytosin-1′-yl)-1,3-dioxolane]
inhibition at 100 µM [2]: 81% | IC50 [2]: 16 µM

Nc1nc(NC2CC2)c2ncn([C@H]3CO[C@@H](COP(=O)(O)OP(=O)(O)OP(=O)(O)O)O3)c2n1 [9(-)-triphosphate, (−)-triphosphate-cis-2-hydroxymethyl-4-(2′-amino-6′-cyclopropylamino-purine-9′-yl)-1,3-dioxolane]
inhibition at 100 µM ([1]; @100 μM compound): 44%

Nc1ncnc2c1ncn2[C@H]1CO[C@@H](COP(=O)(O)OP(=O)(O)OP(=O)(O)O)O1 [14(-)-triphosphate, (−)-triphosphate-cis-2-hydroxymethyl-4-(adenin-9′-yl)-1,3-dioxolane]
inhibition at 50 µM [1]: 6%

Nc1ccn([C@@H]2CO[C@H](COP(=O)(O)OP(=O)(O)OP(=O)(O)O)O2)c(=O)n1 [COMPOUND#22(−), (−)-triphosphate-cis-2-hydroxymethyl-4-(cytosin-1′-yl)-1,3-dioxolane]
inhibition at 100 µM [2]: 15%

Nc1nc(=O)n([C@H]2CO[C@@H](COP(=O)(O)OP(=O)(O)OP(=O)(O)O)O2)cc1F [COMPOUND#23(+), (+)-triphosphate-cis-2-hydroxymethyl-4-(5′-fluorocytosin-1′-yl)-1,3-dioxolane]
inhibition at 100 µM [2]: 57%

Nc1ncn([C@H]2CO[C@@H](COP(=O)(O)OP(=O)(O)OP(=O)(O)O)O2)c(=O)n1 [COMPOUND#24(+), (+)-triphosphate-cis-2-hydroxymethyl-4-(5′-azacytosin-1′-yl)-1,3-dioxolane]
inhibition at 50 µM [2]: 12%

Nc1ncn([C@@H]2CO[C@H](COP(=O)(O)OP(=O)(O)OP(=O)(O)O)O2)c(=O)n1 [COMPOUND#24(−), (−)-triphosphate-cis-2-hydroxymethyl-4-(5′-azacytosin-1′-yl)-1,3-dioxolane]
inhibition at 100 µM [2]: 8%

Cc1cn([C@H]2CO[C@@H](COP(=O)(O)OP(=O)(O)OP(=O)(O)O)O2)c(=O)nc1N [COMPOUND#25(+), (+)-triphosphate-cis-2-hydroxymethyl-4-(5′-methylcytosin-1′-yl)-1,3-dioxolane]
inhibition at 50 µM [2]: 9%

Cc1cn([C@H]2CO[C@@H](COP(=O)(O)OP(=O)(O)OP(=O)(O)O)O2)c(=O)[nH]c1=O [COMPOUND#26(+), (+)-triphosphate-cis-2-hydroxymethyl-4-(N-1′-thiminyl)-1,3-dioxolane]
inhibition at 100 µM [2]: 47%
